Assay [1] deals with T1, EcTrpRS (Escherichia coli, UniProt P00954).
T1 construct: gene trpS; full-length (domains span residues 1-334), C-terminal His6 tag, pET20b(+), E. coli BL21(DE3); homodimer, as purified carries one copurified TrpAMP per dimer
Description: ITC, one-site model. In kind it is binding.

The target of assay [2] is T1, EcTrpRS. Description: ITC, one-site model; cocrystal structure. In kind it is binding. The note with it: PBS, 15 °C.
Assay [3] deals with T1, EcTrpRS. Description: crystal structure, copurified. In kind it is binding. The note with it: intermediate product in active site of closed subunit; 1.80 Å.
The target of assay [4] is T1, EcTrpRS. Description: ATP consumption assay (Kinase-Glo), tRNA-dependent. In kind it is biochemical.
The target in a further assay is T2, SaTrpRS (Staphylococcus aureus, UniProt P67593).
T2 construct: gene trpS; residues 1-329, expressed and purified similarly to EcTrpRS (His-tagged, E. coli BL21(DE3))
T2 sequence (P67593 whole entry, the tested form may be a part): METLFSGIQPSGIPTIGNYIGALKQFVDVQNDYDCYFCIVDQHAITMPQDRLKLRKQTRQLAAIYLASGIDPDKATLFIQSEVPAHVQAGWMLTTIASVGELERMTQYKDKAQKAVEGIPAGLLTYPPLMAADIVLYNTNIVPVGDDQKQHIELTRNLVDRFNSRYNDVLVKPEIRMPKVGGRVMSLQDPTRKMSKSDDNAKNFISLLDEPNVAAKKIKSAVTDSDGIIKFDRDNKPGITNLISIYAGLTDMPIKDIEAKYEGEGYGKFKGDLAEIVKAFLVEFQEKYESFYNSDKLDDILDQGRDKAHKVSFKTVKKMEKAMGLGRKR
The assay is described as follows: ITC, one-site model. Type of assay: binding. The note with it: PBS, 15 °C.

For the compound `Nc1ncnc2c1ncn2[C@@H]1O[C@H](COP(=O)(O)OP(=O)(O)OP(=O)(O)O)[C@@H](O)[C@H]1O` [ATP], on EcTrpRS [1], the dissociation constant (Kd) is 305 ± 49.9 µM. For the compound `N[C@@H](Cc1c[nH]c2ccccc12)C(=O)O` [L-Trp], the Kd result at EcTrpRS [2] (measured for open-closed (one TrpAMP bound) and apo open-open enzyme, active site of open subunit) is “ITC measurements of L-Trp to ‘open-closed’ asymmetric EcTrpRS and ‘open-open’ apo EcTrpRS showed similar binding”. On to `Nc1ncnc2c1ncn2[C@@H]1O[C@H](COP(=O)(O)OC(=O)[C@@H](N)Cc2c[nH]c3ccccc23)[C@@H](O)[C@H]1O` [TrpAMP], for which, at EcTrpRS [3], the “crystal structure, copurified” value is reported as “A copurified tryptophanyl adenylate (TrpAMP)”. Take `NC(=O)c1cccc2cn(-c3ccc([C@@H]4CCCNC4)cc3)nc12` [niraparib]: the Kd result is “~ around 20 μM” on EcTrpRS [2] (L-Trp site of the open subunit, blocked by high L-Trp) and “~ around 20 μM” at SaTrpRS. The compound also displayed an IC50 on EcTrpRS [4] of 148 µM.

The record behind these values is paper PMC10201369, “An asymmetric structure of bacterial TrpRS supports the half-of-the-sites catalytic mechanism and facilitates antimicrobial screening” (Nucleic Acids Research, 2023).
